Laboratory results published in ChEMBL document CHEMBL2311352, “Discovery of 4-phenyl-2-phenylaminopyridine based TNIK inhibitors” (Bioorg Med Chem Lett, 2013).

How the values were obtained:
[1] = molecular target: Tyrosine-protein kinase SYK (Homo sapiens) (UniProt P43405); assay: Inhibition of SYK (unknown origin) at 1 uM
[2] = molecular target: Tyrosine-protein kinase JAK1 (Homo sapiens) (UniProt P23458); assay: Inhibition of JAK1 (unknown origin) at 1 uM
[3] = molecular target: High affinity nerve growth factor receptor (Homo sapiens) (UniProt P04629); assay: Inhibition of TRKA (unknown origin) at 1 uM
[4] = molecular target: Serine/threonine-protein kinase Nek1 (Homo sapiens) (UniProt Q96PY6); assay: Inhibition of NEK1 (unknown origin) at 1 uM
[5] = molecular target: Proto-oncogene tyrosine-protein kinase Src (Homo sapiens) (UniProt P12931); assay: Inhibition of c-SRC (unknown origin) at 1 uM
[6] = molecular target: Tyrosine-protein kinase Yes (Homo sapiens) (UniProt P07947); assay: Inhibition of YES (unknown origin) at 1 uM
[7] = molecular target: Protein-tyrosine kinase 6 (Homo sapiens) (UniProt Q13882); assay: Inhibition of BRK (unknown origin) at 1 uM
[8] = molecular target: Aurora kinase B (Homo sapiens) (UniProt Q96GD4); assay: Inhibition of aurora B (unknown origin) at 1 uM
[9] = molecular target: Fibroblast growth factor receptor 2 (Homo sapiens) (UniProt P21802); assay: Inhibition of FGFR2 (unknown origin) at 1 uM
[10] = molecular target: Aurora kinase A (Homo sapiens) (UniProt O14965); assay: Inhibition of aurora A (unknown origin) at 1 uM
[11] = molecular target: Vascular endothelial growth factor receptor 1 (Homo sapiens) (UniProt P17948); assay: Inhibition of VEGFR1 (unknown origin) at 1 uM
[12] = molecular target: Ribosomal protein S6 kinase beta-1 (Homo sapiens) (UniProt P23443); assay: Inhibition of p70S6K (unknown origin) at 1 uM
[13] = molecular target: Inhibitor of nuclear factor kappa-B kinase subunit epsilon (Homo sapiens) (UniProt Q14164); assay: Inhibition of IKKepsilon (unknown origin) at 1 uM
[14] = molecular target: Fibroblast growth factor receptor 1 (Homo sapiens) (UniProt P11362); assay: Inhibition of FGFR1 (unknown origin) at 1 uM
[15] = molecular target: Tyrosine-protein kinase JAK2 (Homo sapiens) (UniProt O60674); assay: Inhibition of JAK2 (unknown origin) at 1 uM
[16] = molecular target: T1, TRAF2 and NCK-interacting protein kinase (Homo sapiens, UniProt Q9UKE5); assay: Ratio of IC50 for TNIK-mediated TCF4/[…] transcription in human HCT116 cells to IC50 for TNIK (unknown origin); type: cell-based; settings: HCT-116
[17] = molecular target: Angiopoietin-1 receptor (Homo sapiens) (UniProt Q02763); assay: Inhibition of TIE2 (unknown origin) at 1 uM
[18] = molecular target: Cyclin-dependent kinase 1/cyclin B1 (Homo sapiens) (UniProt P06493+P14635); assay: Inhibition of CDK1/cyclin B (unknown origin) at 1 uM; type: protein-complex assay
[19] = molecular target: Tyrosine-protein kinase HCK (Homo sapiens) (UniProt P08631); assay: Inhibition of HCK (unknown origin) at 1 uM
[20] = molecular target: Homeodomain-interacting protein kinase 1 (Homo sapiens) (UniProt Q86Z02); assay: Inhibition of HIPK1 (unknown origin) at 1 uM
[21] = molecular target: Ephrin type-A receptor 7 (Homo sapiens) (UniProt Q15375); assay: Inhibition of EPHA7 (unknown origin) at 1 uM
[22] = molecular target: Protein-tyrosine kinase 2-beta (Homo sapiens) (UniProt Q14289); assay: Inhibition of PYK2 (unknown origin) at 1 uM
[23] = molecular target: CDK9/cyclin T1 (Homo sapiens) (UniProt O60563+P50750); assay: Inhibition of CDK9/cyclin T1 (unknown origin) at 1 uM; type: protein-complex assay
[24] = molecular target: Casein kinase II subunit alpha (Homo sapiens) (UniProt P68400); assay: Inhibition of CK2alpha (unknown origin) at 1 uM
[25] = molecular target: Death-associated protein kinase 1 (Homo sapiens) (UniProt P53355); assay: Inhibition of DAPK1 (unknown origin) at 1 uM
[26] = molecular target: Muscle, skeletal receptor tyrosine-protein kinase (Homo sapiens) (UniProt O15146); assay: Inhibition of MUSK (unknown origin) at 1 uM
[27] = molecular target: Tyrosine-protein kinase receptor UFO (Homo sapiens) (UniProt P30530); assay: Inhibition of AXL (unknown origin) at 1 uM
[28] = molecular target: T1, TRAF2 and NCK-interacting protein kinase; assay: Competitive binding affinity to TNIK (unknown origin) in presence of ATP

Chain of Serine/threonine-protein kinase Nek1 (Homo sapiens) (Q96PY6 whole entry): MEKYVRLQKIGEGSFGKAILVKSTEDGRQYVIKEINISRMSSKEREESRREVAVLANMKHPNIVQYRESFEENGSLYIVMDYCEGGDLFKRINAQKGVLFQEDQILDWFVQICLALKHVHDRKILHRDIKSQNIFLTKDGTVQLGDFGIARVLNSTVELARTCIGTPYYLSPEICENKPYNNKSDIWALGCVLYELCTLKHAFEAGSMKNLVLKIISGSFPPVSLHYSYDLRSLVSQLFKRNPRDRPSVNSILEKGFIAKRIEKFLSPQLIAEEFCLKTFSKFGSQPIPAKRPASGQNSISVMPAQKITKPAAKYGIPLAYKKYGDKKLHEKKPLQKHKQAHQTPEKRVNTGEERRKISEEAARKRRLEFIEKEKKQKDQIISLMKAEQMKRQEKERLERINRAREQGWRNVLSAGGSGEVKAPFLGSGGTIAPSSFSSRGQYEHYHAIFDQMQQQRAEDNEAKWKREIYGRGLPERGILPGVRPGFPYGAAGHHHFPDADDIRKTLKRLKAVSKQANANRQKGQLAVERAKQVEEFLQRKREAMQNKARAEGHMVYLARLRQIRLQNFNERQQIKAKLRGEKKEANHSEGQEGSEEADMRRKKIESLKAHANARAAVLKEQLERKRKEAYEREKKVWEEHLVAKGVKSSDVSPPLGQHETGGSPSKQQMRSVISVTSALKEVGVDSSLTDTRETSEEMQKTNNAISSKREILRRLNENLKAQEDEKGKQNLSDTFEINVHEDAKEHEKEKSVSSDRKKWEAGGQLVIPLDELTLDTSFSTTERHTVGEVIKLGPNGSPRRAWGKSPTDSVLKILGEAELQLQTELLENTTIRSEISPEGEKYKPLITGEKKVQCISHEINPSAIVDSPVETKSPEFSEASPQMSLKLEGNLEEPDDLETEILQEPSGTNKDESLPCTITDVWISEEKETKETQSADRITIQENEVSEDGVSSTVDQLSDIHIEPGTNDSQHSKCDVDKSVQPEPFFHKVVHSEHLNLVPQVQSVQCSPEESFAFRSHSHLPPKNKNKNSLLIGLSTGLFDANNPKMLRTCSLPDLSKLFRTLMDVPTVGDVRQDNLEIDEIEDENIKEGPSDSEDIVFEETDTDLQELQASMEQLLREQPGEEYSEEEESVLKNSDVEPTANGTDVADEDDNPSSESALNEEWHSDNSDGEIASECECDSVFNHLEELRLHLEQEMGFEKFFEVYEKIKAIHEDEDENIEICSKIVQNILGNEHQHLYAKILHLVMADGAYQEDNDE
Chain of Angiopoietin-1 receptor (Homo sapiens) (Q02763 whole entry): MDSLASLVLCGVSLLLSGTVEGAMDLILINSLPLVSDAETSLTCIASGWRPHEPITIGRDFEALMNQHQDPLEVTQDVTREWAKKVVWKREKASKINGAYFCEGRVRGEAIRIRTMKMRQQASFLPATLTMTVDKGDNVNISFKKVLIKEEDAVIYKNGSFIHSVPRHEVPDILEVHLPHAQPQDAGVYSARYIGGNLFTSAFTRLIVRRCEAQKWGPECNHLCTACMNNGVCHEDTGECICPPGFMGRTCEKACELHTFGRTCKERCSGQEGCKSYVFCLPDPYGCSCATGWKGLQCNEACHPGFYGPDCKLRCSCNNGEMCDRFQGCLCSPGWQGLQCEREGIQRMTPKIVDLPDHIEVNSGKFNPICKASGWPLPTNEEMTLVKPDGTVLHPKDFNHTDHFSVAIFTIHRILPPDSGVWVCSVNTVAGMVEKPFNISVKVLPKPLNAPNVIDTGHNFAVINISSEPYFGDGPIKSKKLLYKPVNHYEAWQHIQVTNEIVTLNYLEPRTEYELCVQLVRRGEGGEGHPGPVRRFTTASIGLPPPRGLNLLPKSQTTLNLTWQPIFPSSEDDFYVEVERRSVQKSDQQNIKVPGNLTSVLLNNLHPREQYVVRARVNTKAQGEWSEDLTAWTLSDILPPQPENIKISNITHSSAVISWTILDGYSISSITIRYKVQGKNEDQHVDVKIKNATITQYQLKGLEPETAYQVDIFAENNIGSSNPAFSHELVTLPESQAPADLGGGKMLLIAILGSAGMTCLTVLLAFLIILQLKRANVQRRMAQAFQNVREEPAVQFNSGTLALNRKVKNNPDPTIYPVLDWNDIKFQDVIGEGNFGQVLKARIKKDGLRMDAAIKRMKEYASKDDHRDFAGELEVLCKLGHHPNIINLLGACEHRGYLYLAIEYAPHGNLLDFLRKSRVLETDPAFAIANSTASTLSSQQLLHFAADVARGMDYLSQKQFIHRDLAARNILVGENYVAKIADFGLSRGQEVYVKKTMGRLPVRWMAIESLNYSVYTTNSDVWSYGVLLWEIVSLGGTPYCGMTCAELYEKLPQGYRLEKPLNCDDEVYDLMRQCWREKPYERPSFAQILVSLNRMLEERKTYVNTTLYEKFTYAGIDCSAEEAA
Chain of High affinity nerve growth factor receptor (Homo sapiens) (P04629 33-796 limits assumed): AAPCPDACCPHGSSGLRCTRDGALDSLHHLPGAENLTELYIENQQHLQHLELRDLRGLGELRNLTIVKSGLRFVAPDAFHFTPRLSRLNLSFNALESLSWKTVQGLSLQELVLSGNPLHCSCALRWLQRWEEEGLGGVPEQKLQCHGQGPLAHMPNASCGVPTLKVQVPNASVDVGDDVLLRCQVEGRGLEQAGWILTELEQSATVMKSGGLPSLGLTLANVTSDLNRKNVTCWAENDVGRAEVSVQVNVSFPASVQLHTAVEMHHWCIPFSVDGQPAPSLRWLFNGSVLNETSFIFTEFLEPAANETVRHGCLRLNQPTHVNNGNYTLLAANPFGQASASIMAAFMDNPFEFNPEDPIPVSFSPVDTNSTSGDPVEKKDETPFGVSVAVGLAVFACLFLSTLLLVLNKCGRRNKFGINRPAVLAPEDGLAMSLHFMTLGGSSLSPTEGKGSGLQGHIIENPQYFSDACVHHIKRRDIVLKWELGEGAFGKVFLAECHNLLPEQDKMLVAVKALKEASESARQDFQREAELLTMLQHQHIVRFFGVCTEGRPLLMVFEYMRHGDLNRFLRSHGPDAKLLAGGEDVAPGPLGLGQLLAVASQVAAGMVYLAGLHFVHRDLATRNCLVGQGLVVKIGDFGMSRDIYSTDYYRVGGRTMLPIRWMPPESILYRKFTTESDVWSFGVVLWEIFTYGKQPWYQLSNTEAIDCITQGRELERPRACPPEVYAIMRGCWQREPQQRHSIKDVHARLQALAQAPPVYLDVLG
Chain of Tyrosine-protein kinase Yes (Homo sapiens) (P07947 2-543 limits assumed): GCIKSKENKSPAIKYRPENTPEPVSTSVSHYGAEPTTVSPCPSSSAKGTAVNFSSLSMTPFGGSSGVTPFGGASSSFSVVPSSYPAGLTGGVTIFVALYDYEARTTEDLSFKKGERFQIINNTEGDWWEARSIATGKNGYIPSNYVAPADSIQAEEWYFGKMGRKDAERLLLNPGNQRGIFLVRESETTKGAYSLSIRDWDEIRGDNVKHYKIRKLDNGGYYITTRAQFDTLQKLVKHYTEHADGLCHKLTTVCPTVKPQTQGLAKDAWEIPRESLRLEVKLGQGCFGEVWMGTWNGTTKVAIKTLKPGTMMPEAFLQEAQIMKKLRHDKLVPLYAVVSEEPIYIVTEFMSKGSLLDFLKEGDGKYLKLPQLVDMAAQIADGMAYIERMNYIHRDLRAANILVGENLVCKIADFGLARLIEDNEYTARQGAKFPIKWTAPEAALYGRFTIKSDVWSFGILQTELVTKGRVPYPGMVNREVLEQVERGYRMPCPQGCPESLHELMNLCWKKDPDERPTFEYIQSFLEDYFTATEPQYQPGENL
Chain of Inhibitor of nuclear factor kappa-B kinase subunit epsilon (Homo sapiens) (Q14164 whole entry): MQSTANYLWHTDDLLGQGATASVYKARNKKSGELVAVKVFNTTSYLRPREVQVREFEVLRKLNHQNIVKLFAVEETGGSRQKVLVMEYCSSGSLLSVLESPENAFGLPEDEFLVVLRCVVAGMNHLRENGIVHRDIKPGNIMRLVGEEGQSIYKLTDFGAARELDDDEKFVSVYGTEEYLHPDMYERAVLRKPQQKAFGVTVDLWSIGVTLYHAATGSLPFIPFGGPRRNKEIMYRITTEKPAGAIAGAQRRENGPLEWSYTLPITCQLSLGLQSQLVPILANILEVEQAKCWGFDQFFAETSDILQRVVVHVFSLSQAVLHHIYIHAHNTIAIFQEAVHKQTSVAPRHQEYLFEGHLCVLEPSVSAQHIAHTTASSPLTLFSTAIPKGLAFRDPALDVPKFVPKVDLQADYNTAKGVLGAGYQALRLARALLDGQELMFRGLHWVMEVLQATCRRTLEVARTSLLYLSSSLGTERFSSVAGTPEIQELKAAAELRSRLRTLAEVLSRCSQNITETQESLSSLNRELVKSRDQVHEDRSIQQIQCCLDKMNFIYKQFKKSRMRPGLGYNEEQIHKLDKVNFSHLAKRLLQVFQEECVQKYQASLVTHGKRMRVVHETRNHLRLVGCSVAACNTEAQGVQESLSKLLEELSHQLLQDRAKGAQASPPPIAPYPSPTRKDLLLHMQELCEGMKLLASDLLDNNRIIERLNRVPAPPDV
Chain of Casein kinase II subunit alpha (Homo sapiens) (P68400 whole entry, looked up): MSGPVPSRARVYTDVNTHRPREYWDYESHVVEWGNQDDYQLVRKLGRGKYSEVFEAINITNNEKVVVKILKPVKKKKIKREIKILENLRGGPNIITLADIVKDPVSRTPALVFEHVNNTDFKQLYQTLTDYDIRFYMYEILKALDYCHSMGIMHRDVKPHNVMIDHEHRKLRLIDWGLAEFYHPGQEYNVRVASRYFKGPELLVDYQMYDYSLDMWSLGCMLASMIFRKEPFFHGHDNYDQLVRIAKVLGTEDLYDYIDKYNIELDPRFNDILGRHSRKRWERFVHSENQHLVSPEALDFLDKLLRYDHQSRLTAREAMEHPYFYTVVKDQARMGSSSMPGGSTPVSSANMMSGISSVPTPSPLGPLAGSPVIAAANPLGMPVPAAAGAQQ

For COc1cc(Nc2ncc(Cl)c(-c3cccc(CC#N)c3)n2)ccc1N1CCN(C)CC1, the inhibition [1] was greater than 80%, the inhibition [2] was greater than 80% and the inhibition [3] was greater than 80%. For the same compound, the inhibition [4] was greater than 80%, the inhibition [5] was greater than 80% and the inhibition [6] was greater than 80%. It also gave an inhibition [7] greater than 80%, an inhibition [8] greater than 80% and an inhibition [9] greater than 95%. For the same compound, the inhibition [10] was greater than 95%, the inhibition [11] was greater than 95% and the inhibition [12] was greater than 95%. It also gave an inhibition [13] greater than 95%, an inhibition [14] greater than 95% and an inhibition [15] greater than 95%. The Ratio IC50 [16] was 5.4, the inhibition [17] was 50% and the inhibition [18] was greater than 50%. The inhibition [19] was 50%, the inhibition [20] was 50% and the inhibition [21] was 50%. For the same compound, the inhibition [22] was 50%, the inhibition [23] was greater than 50% and the inhibition [24] was greater than 80%. For the same compound, the inhibition [25] was greater than 80%, the inhibition [26] was greater than 80% and the inhibition [27] was greater than 80%. It also gave a Kd [28] of 86 nM.
